Experimental data: ChEMBL document CHEMBL5390228, “Unnatural Endotype B PPAPs as Novel Compounds with Activity against Mycobacterium tuberculosis” (J Med Chem, 2023)

Tested on: Mycobacterium tuberculosis
Assay: Antimicrobial activity in INH-resistant Mycobacterium tuberculosis ATCC 35822 infected in human Primary macrophage cells assessed as reduction in intracellular growth of bacteria incubated for 4 days by CFU assay
Assay type: functional, organism-based
Settings: ATCC 35822, Primary macrophage, 96 h

C=CC[C@@]12C[C@H](CC=C(C)C)C(C)(C)[C@@](CC=C)(C(=O)C(C(C)=O)=C1[O-])C2=O.[Na+]
IC50: 15.9 µM
